Test [1] concerns the target T1, peroxisome proliferator-activated receptor α (PPARα) (Homo sapiens, UniProt Q07869, T283A).
T1 construct: gene PPARA
T1 sequence (Q07869 200-468 T283A): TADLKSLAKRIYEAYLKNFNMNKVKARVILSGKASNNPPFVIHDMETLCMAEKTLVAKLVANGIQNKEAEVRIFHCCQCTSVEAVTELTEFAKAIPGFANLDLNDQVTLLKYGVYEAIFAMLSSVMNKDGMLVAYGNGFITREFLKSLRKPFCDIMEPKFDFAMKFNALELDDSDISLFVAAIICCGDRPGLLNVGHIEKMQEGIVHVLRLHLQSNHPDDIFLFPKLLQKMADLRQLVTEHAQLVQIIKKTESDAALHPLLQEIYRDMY
Put plainly: microscale thermophoresis with purified recombinant EGFP-PPARα LBD T283A. The format is binding. A general note: Microscale thermophoresis detects binding through changes in fluorescence in a small temperature gradient.

For test [2], the target named is T2, peroxisome proliferator-activated receptor α (PPARα) (Homo sapiens, UniProt Q07869).
T2 construct: gene PPARA
T2 sequence (Q07869 200-468): T1 sequence (Q07869 200-468 T283A) with A84T
Put plainly: microscale thermophoresis with purified recombinant EGFP-PPARα LBD. The format is binding.

Numbering of substitutions follows the chain as printed.

As a reminder, the Kd is the equilibrium constant for the complex coming apart. For `Cc1cccc2c3c(ccc12)C1=C(C(=O)C3=O)[C@@H](C)CO1` [DhT, dihydrotanshinone I], the figures for the Kd in test [1] and in test [2] were 32.9 ± 6.1 µM and 1.66 ± 0.5 µM, respectively.

Source of the values: publication PMC11727260, “Free Cholesterol‐Induced Liver Injury in Non‐Alcoholic Fatty Liver Disease: Mechanisms and a Therapeutic Intervention Using Dihydrotanshinone I” (Advanced Science, 2024).
